Reference: US11844349B2, “Anti-microbial agent to control biomass accumulation in SO2 scrubbers” (ECOLAB USA INC., priority 2016, dated 2023)

Tested on: bacterial populations native to the test sample
Assay: Minimum inhibitory concentration screen of biocides under anaerobic conditions (pH indicator dye)
Format: cell-based
Settings: pH 6.5, read-out: Minimum Inhibitory Concentration
Text: A few exemplary biocides or a combination of one or more quaternary ammonium compounds with one additional biocide were investigated for their ability to inhibit microorganism growth. The method used to generate the data in Table 1 was based on methods for identifying the minimum inhibitory concentration of biocides or biocidal agents for use in anaerobically contaminated aqueous system as disclosed in the patent publication WO9934013A1 by Schwingel, et. al.
The method was a test assay used to rapidly screen antimicrobial agents against bacterial populations native to the test sample under anaerobic conditions. The assay utilized a pH indicator dye which is red at pH levels above 6.5 and yellow below pH 6.5. During fermentation under anaerobic conditions, volatile fatty acids were produced, which lowered the pH of the system. In the test wells, the accumulation of volatile fatty acids from actively growing and fermenting microorganisms lowered the pH causing the indicator dye to turn yellow. […]
When the control sample had turned yellow due to active fermentation and acid production, all samples were examined for color change, and the Minimum Inhibitory Concentration (MIC) values recorded. […] Because MIC values change with extended contact time, it was important to read the MIC values within 2-3 hours of the control wells turning yellow. […]

Row | SMILES | MIC [µg/mL]
1 | N#CSCSC#N [Methylenebisthiocyanate] | 0.8 to 1.6
2 | CN1CSC(=S)N(C)C1 [3,5-dimethyl-tetrahydro-2H-1,3,5-thiadiazine-2-thione] | 26.2
